PMC6160541 (Frontiers in Chemistry, 2018)

Columns and labels:
[1] = system: LNCaP; experiment: MTT cytotoxicity assay, LNCaP; assay type: cell-based, human; conditions: 48 h
Experimental: (§1) We evaluated the cytotoxicity of 1c-6c, 1d-7d and of the positive control 1a-5a against a panel of human cancer cells using MTT (3-(4,5-dimethylthiazol-2-yl)-2,5-diphenyltetrazolium bromide) assay. The IC50 values were calculated based on three parallel experiments.
(§2) Cisplatin and oxaliplatin were purchased from Yurui Chemical Co. Ltd. (Shanghai, China). All of the other chemicals were obtained from commercial suppliers, such as Alfa […]
(§3) IonSpec QFT mass spectrometer with ESI ionization. 3-(4,5-dimethylthiazol-2-yl) […]
(§4) Phosphate-buffered saline (PBS) contains 137 mM
(§5) NaCl, 2.7 mM KCl, 10 mM Na2HPO4 and 2 mM KH2PO4. Fetal bovine serum (FBS), 0.25% trypsin/EDTA solution, and penicillin-streptomycin solution were purchased from […]
(§6) Invitrogen (Grand Island, NY, USA). […]
(§7) HeLa (cervical carcinoma cell line), MCF-7 (breast gland adenocarcinoma), LNCaP and PC3 (prostatic cancer), HepG-2 (hepatocellular carcinoma), A549 and A549R (lung carcinoma) were used for the MTT […]
(§8) In Vitro Cellular Cytotoxicity Assays
(§9) Cells seeded in 96-well plates were incubated in a 5% CO2 atmosphere in 100 µL of complete medium at 37 ℃ for 24 h. Then, 100 µL of freshly prepared culture medium containing drugs at different concentrations was added and incubated for another 48 h.
(§10) MTT (5 mg/mL, 20 µL) was added and incubated for 3 h. Finally, the medium was removed, and DMSO (150 µL) was added. The absorbance was measured at 570 nm using a Bio-Rad 680 microplate reader. The IC50 values were calculated using GraphPad […]
(§11) Prism software. […]

[2] = system: HepG-2; experiment: MTT cytotoxicity assay, HepG-2; assay type: cell-based, human; conditions: 48 h
Experimental: as §1, §2, §3, §4, §5, §6, §7, §8, §9, §10, §11

[3] = system: PC3; experiment: MTT cytotoxicity assay, PC3; assay type: cell-based, human; conditions: 48 h
Experimental: as §1, §2, §3, §4, §5, §6, §7, §8, §9, §10, §11

[4] = system: HeLa; experiment: MTT cytotoxicity assay, HeLa; assay type: cell-based, human; conditions: 48 h
Experimental: as §1, §2, §3, §4, §5, §6, §7, §8, §9, §10, §11

[5] = set-up: method as in printed; conditions: comparison values, ref not given; cited from earlier work
[6] = system: A549; experiment: MTT cytotoxicity assay, A549; assay type: cell-based, human; conditions: 48 h
Experimental: as §1, §2, §3, §4, §5, §6, §7, §8, §9, §10, §11

[7] = system: MCF-7; experiment: MTT cytotoxicity assay, MCF-7; assay type: cell-based, human; conditions: 48 h
Experimental: as §1, §2, §3, §4, §5, §6, §7, §8, §9, §10, §11

[8] = system: MDCK cells; experiment: MTT cytotoxicity with EDG, phloretin, Ctd. in MDCK cells; assay type: cell-based, canine; conditions: vs IC50 at 48 h
From the text: Finally, Madin-Darby canine kidney (MDCK) cells, which are widely used to establish the model of the intestinal epithelium and to evaluate the oral administration and screening of substrates and inhibitors in vitro, were used to find a prodrug with the enhanced potential for oral administration. […] (Figure 10).

[9] = system: A549R; experiment: MTT cytotoxicity assay, A549R (cisplatin-resistant); assay type: cell-based, human
Experimental: as §1, §2, §3, §4, §5, §6, §7, §8, §9, §10, §11

CC(=O)[O][Pt]([NH2])([Cl])([Cl])([NH]C1CCCCC1)[O]C(C)=O [5a, satraplatin, reference compound]
IC50 [1]: 5.23 ± 1.77 µM
IC50 [2]: 6.7 ± 1.89 µM
IC50 [3]: 16.8 ± 1.56 µM
IC50 [4]: 3.1 ± 0.89 µM
t1/2 in whole human blood [5]: 6.3 min
IC50 [6]: 2.17 ± 1.68 µM
IC50 [7]: 8.01 ± 0.56 µM
effect of EDG, phloretin, Ctd. and EDG + Ctd. on IC50 [8]: no great differences
RF: Resistance factor = IC50(A549R)/IC50(A549) [9]: 4.59
IC50 ([9]; MTT, 48 h): 9.96 ± 0.57 µM
